In PMC8144350, “Block of TREK and TRESK K2P channels by lamotrigine and two derivatives sipatrigine and CEN-092” (Biochemistry and Biophysics Reports, 2021):

Assays:
Experiment in all cases: whole-cell patch-clamp, tsA201 cells
Type in all cases: cell-based
TRESK = molecular target: T1, TRESK (Homo sapiens, UniProt Q7Z418)
T1 construct: gene KCNK18; wild-type human TRESK (NP_862823.1)
T1 sequence (Q7Z418 1-384): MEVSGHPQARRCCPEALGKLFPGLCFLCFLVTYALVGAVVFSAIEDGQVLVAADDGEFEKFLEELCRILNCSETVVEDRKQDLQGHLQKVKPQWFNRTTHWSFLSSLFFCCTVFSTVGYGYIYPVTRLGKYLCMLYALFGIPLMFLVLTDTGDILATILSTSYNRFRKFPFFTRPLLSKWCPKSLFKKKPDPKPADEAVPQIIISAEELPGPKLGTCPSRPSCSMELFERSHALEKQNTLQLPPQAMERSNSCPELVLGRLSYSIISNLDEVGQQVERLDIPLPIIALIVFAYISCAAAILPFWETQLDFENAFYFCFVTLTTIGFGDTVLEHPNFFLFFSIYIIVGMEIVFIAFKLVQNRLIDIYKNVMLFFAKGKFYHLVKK

TREK-1 [1] = molecular target: T2, TREK-1 (Homo sapiens, UniProt O95069)
T2 construct: gene KCNK2; wild-type human TREK-1 (NP_055032.1)
T2 sequence (O95069 1-426): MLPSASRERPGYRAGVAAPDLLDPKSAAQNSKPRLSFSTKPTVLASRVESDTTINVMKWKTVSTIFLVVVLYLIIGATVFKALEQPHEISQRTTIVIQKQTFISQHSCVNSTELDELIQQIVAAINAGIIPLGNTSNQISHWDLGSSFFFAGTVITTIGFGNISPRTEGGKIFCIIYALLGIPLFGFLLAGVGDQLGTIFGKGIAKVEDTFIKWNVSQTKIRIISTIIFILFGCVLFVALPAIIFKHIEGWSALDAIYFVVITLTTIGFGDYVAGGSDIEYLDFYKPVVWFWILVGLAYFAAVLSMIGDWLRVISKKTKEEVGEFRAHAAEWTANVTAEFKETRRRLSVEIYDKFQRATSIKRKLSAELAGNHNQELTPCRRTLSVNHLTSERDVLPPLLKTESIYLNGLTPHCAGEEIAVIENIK

TREK-2 = molecular target: T3, TREK-2 (Homo sapiens, UniProt P57789)
T3 construct: gene KCNK10; wild-type human TREK-2 (NP_612190.1)
T3 sequence (P57789 1-538): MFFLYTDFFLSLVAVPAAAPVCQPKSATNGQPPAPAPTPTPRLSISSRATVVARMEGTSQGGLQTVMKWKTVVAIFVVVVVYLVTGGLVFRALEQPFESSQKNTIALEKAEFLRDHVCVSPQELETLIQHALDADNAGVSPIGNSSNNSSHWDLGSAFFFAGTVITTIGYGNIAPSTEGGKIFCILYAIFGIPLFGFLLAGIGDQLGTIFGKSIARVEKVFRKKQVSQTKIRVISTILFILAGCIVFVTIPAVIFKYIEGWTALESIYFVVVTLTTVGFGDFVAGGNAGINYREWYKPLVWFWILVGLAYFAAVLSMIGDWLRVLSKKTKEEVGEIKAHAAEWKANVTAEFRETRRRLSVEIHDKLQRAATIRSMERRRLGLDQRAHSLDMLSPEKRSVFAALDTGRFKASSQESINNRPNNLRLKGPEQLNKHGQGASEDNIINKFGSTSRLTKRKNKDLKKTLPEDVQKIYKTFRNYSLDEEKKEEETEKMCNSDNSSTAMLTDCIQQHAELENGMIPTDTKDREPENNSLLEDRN

TREK-1 [2] = molecular target: T2, TREK-1; remark: listed apart in the source

| SMILES | inhibition at 100 µM (TRESK) | inhibition at 100 µM (TREK-1 [1]) | inhibition at 100 µM (TREK-2) | EC50 (TREK-1 [2]) |
| --- | --- | --- | --- | --- |
| Nc1nnc(-c2cc(C(F)(F)F)cc(C(F)(F)F)c2)c(N)n1 [CEN-092, 3,5-diamino-6-(3,5-bistrifluoromethylphenyl)-1,2,4-triazine] | 43% | 21% |  |  |
| Nc1nnc(-c2cccc(Cl)c2Cl)c(N)n1 [lamotrigine] | 35% | 30% | 14% |  |
| CN1CCN(c2ncc(-c3cc(Cl)cc(Cl)c3Cl)c(N)n2)CC1 [sipatrigine] |  |  | 85% | 16 µM |
